Molecules are shown by their SMILES. In brackets after ≈: the same amount, converted by molar mass. Read-outs that look alike come from different tables or passages of the source.

The values below come from patent publication US5684036A, “Cytotoxic macrolides and methods of use” (Harbor Branch Oceanographic Institution, Inc., priority 1995, dated 1997).

Holding throughout (assay type): cell-based
Assay [1] deals with EL-4 cell adherence (protein kinase C). In words: EL-4 adherence assay (PKC-associated, with or without PMA). The arrangement: key to EL-4 Adherence: Inh: inhibition. The settings on record: for IC50: Mus musculus, EL4. The protocol:
(§1) Lasonolide A was tested for toxicity against P388 murine leukemia cells and A549 human lung carcinoma cells, and for their ability to perturb signal transduction pathways associated with activation of protein kinase C (PKC) and EL-4 cell adherence.
(§2) A. Maintenance of cell line. The P388 murine leukemia cells were obtained from Dr. J. Mayo, National Cancer Institute, Bethesda, Md. The A549 cells and EL-4.IL-2 cells (TIB) were obtained from the American Type Culture Collection, Rockville, Md. The P388 cells were maintained in Roswell Park Memorial Institute medium 1640 (RPMI-1640) supplemented with 10% horse serum and cultured in plastic tissue culture flasks and kept in an incubator at 37° C. in humidified air containing 5% CO2. The A549 cells were similarly maintained in RPMI-1640 but supplemented with 10% fetal bovine serum. Antibiotic-free stock cultures of P388 and A549 cells were subcultured to 10^5 cells/mi by dilutions in fresh growth medium at 2 to 5 day intervals. The EL-4 cells were similarly maintained but supplemented with 10% v/v heat-inactivated fetal calf serum, 100 U/ml penicillin, 100 μg/ml streptomycin, 6/ μg/ml L-glutamine, and 5×10^-3 M 2-mercaptoethanol (TCM) (Grand Island Biologicals Co., Grand Island, N.Y.).
Cells were passaged every 3-4 days. Viability was determined by Trypan blue exclusion and always exceeded 80%. For the adherence assay, cells were utilized within 15 passages of frozen stock cultures. Phorbol-12-myristate-13-acetate (PMA), and 4α-phorbol-12-myristate-13-acetate (4α-PMA) were obtained from LC Services Corporation (Woburn, Mass.). Stock solutions of PMA and 4α-PMA were prepared in DMSO and were stored at -70° C. prior to use.
To assess the effect of the subject compound on EL-4 cells, EL-4 cells (2.5×10^5 /well) were cultured in 96-well, flat-bottomed microtiter test plates at 37° C. with the sponge metabolites in triplicate concentrations in the presence (Plate #1) or absence (Plate #2) of PMA (16 nM final concentration). […] Controls consisted of cells incubated alone (negative control) and cells incubated with PMA (positive control). An additional control plate (Plate #3), consisting of EL-4.1IL-2 cells and identical dilutions of compounds in the absence of PMA served as a cytotoxicity plate and was not processed for adherence as described below, but used to monitor the potential cytotoxic effect of compounds for EL-4.1IL2 cells. Incubation time was 1 hour at 37° C. Following the incubation period, Plates #1 and #2 were processed as follows: the contents of each well were removed by flicking the plates into a catch tray and placing the plates inverted onto a paper towel in order to drain and blot the remaining draining wells. To each well, a volume of 100 μl of TCM was added at room temperature and the plates placed on a rotating platform shaker (Mini-Orbital Shaker, BELLCO Biotechnology, Vineland, N.J.) at setting 5 for 4 minutes. The plates were then rotated 180° and subjected to an additional 4 minutes of shaking. The plates were removed and their contents again removed as described, blotted, TCM added to each well, and the plates placed on the rotating shaker. This process was repeated for two additional wash cycles.
Following the removal of well contents, a volume of 200 μl of TCM and 75 of MTT solution (2 mg/ml in TCM) was added to each well of all plates. Plates were incubated at 37° C. for an additional 4 hours. Following incubation, the contents of Plates #1 and #2 were again removed by flicking the plate into the sink and the plates blotted onto paper towels. Plate #3 was centrifuged and likewise blotted. A volume of 200 μl of iPrOH was then added to each well of all plates in order to dissolve the resulting formazan crystals. The plates were read at 570 nm using a plate reader (Microplate Autoreader, Model EL-311, BIO-TEK Instruments, Inc., Winooski, Vt.). The absorbances for each set of triplicate wells were averaged and the standard error determined. […]

Another assay deals with tumor cell. In words: inhibition of tumor cell growth (general statement). The settings on record: in words.
For assay [2], the system named is A549 human lung carcinoma cells. As to the kind of experiment: antiproliferative effect against A549 human lung carcinoma cells (MTT, 72 hours). Here is the method: as §1
A. Maintenance of cell line. The P388 murine leukemia cells were obtained from Dr. J. Mayo, National Cancer Institute, Bethesda, Md. The A549 cells and EL-4.IL-2 cells (TIB) were obtained from the American Type Culture Collection, Rockville, Md. The P388 cells were maintained in Roswell Park Memorial Institute medium 1640 (RPMI-1640) supplemented with 10% horse serum and cultured in plastic tissue culture flasks and kept in an incubator at 37° C. in humidified air containing 5% CO2. The A549 cells were similarly maintained in RPMI-1640 but supplemented with 10% fetal bovine serum. […]
(§3) To quantitate the effects of Lasonolide A or its analogs on cell proliferation, 75 μl warm growth medium containing 5 mg/ml MTT was added to each well. […] To spectrophotometrically quantitate formation of reduced formazan, plates were centrifuged (900 g, 5 minutes), culture fluids were removed by aspiration, and 200 μl of acidified isopropanol (2 ml concentrated HCl/L isopropanol) added per well. The absorbance of the resulting solutions was measured at 570 nm with a plate reader (MR700 Microplate Reader, Dynatech Laboratories, Chantilly, Va.). […]

The test system of assay [3] is P388 murine leukemia cells. As to the kind of experiment: antiproliferative effect against P388 murine leukemia cells (MTT, 48 hour exposure). The settings on record: for IC50: Mus musculus, P388. The protocol:
as §1, §2
B. Procedure. […]
as §3

As to `C=C(CCC(C)C)COC(=O)C(O)C/C=C/CC1OC2/C=C\C/C=C/C(C)=C\C3OC(C/C=C/C=C/C(=O)OC(C2)C1(C)CO)CC(O)C3C` (stereo not shown) [Lasonolide A], the IC50 (in general, the midpoint of a concentration-inhibition curve) in assay [1] (Table 4, Assay # 38, read-out: EL-4 Adherence IC50) was 0.019 µg/mL (≈ 0.0273 µM); in assay [1] (unit inferred, read-out: IC50 by EL-4 Adherence), 0.019 µg/mL (≈ 0.0273 µM); in assay [2] (Table 4, MTT, 72 hours, read-out: A549 IC50), 0.04 µg/mL (≈ 0.0574 µM); in assay [2] (read-out: IC50 against cultured human lung carcinoma cells (A549)), 0.04 µg/mL (≈ 0.0574 µM); in assay [3] (Table 4, MTT, 48 hours, read-out: P388 IC50) it was 0.002 µg/mL (≈ 0.00287 µM); in assay [3] (read-out: IC50 against mouse leukemia cells), < 0.01 µg/mL. Further, the “EL-4 Adherence” value in assay [1] (Table 4, 3.125 μg/ml) is listed as “Inh”; in assay [1] (Table 4, 6.25 μg/ml), “Inh”; in assay [1] (Table 4, 12.5 μg/ml), “Inh”; in assay [1] (Table 4, 25 μg/ml), “Inh”. Moreover, in assay [1] (in words), the “Inhibition using the EL-4 Adherence assay” value is given as “strong”. Also, the “inhibition of tumor cell growth” value in the assay with tumor cell is given as “inhibit tumor cell growth”. In assay [3] (in words), the “inhibitory properties against mouse leukemia cells” value was “strong inhibitory properties”.
